In ChEMBL document CHEMBL1201861, “Genomics of Drug Sensitity in Cancer screening data, Wellcome Trust Sanger Institute”:

Columns and labels:
Assay in all cases: cells
[1] = system: EW-3; type: functional, cell-based, Homo sapiens; settings: Homo sapiens, EW-3;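 also: cell viability assay read-out, IC50 reflects inhibition of growth of the EW-3 cells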
Description: SANGER: Inhibition of human EW-3 cell growth in a cell viability assay.

[2] = system: CGTH-W-1; type: functional, cell-based, Homo sapiens; settings: Homo sapiens, CGTH-W-1;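 also: growth inhibition of human CGTH-W-1 cells measured by cell viability assay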
Description: SANGER: Inhibition of human CGTH-W-1 cell growth in a cell viability assay.

[3] = system: LS-1034; type: functional, cell-based, Homo sapiens; settings: Homo sapiens, LS-1034
Description: SANGER: Inhibition of human LS-1034 cell growth in a cell viability assay.

[4] = system: NOS-1; type: functional, cell-based, Homo sapiens; settings: Homo sapiens, NOS-1;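 also: growth inhibition of the human NOS-1 cell line, read out with a cell viability assay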
Description: SANGER: Inhibition of human NOS-1 cell growth in a cell viability assay.

[5] = system: NCI-H1838; type: functional, cell-based, Homo sapiens; settings: Homo sapiens, NCI-H1838;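 also: growth inhibition of NCI-H1838 cells, determined with a cell viability readout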
Description: SANGER: Inhibition of human NCI-H1838 cell growth in a cell viability assay.

[6] = system: HCC2218; type: functional, cell-based, Homo sapiens; settings: Homo sapiens, HCC2218;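 also: cell viability assay read-out, with IC50 given as the concentration that inhibits growth of the cell line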
Description: SANGER: Inhibition of human HCC2218 cell growth in a cell viability assay.

[7] = system: SW684; type: functional, cell-based, Homo sapiens; settings: Homo sapiens, SW684; read-out: IC50;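 also: growth inhibition of human SW684 cells, measured by a cell viability assay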
Description: SANGER: Inhibition of human SW684 cell growth in a cell viability assay.

[8] = system: NCI-H1648; type: functional, cell-based, Homo sapiens; settings: Homo sapiens, NCI-H1648;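 also: cell viability assay measuring inhibition of NCI-H1648 cell growth, from the Sanger screening data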
Description: SANGER: Inhibition of human NCI-H1648 cell growth in a cell viability assay.

[9] = system: 697; type: functional, cell-based, Homo sapiens; settings: Homo sapiens
Description: SANGER: Inhibition of human 697 cell growth in a cell viability assay.

[10] = system: MOLT-4; type: functional, cell-based, Homo sapiens; settings: Homo sapiens, MOLT-4;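 also: growth inhibition of MOLT-4 cells, determined with a cell viability readout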
Description: SANGER: Inhibition of human MOLT-4 cell growth in a cell viability assay.

[11] = system: HEL; type: functional, cell-based, Homo sapiens; settings: Homo sapiens, HEL;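 also: growth inhibition of HEL cells, read out with a cell viability assay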
Description: SANGER: Inhibition of human HEL cell growth in a cell viability assay.

[12] = system: SF-539; type: functional, cell-based, Homo sapiens; settings: Homo sapiens, SF-539;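 also: Read-out is a cell viability assay, with IC50 reflecting inhibition of cell growth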
Description: SANGER: Inhibition of human SF539 cell growth in a cell viability assay.

[13] = system: TK-10; type: functional, cell-based, Homo sapiens; settings: Homo sapiens, TK-10;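 also: growth inhibition of TK-10 cells, read out in a cell viability assay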
Description: SANGER: Inhibition of human TK10 cell growth in a cell viability assay.

[14] = system: NCI-H1299; type: functional, cell-based; settings: Homo sapiens;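 also: growth inhibition of human NCI-H1299 cells, read out by a cell viability assay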
Description: SANGER: Inhibition of human NCI-H1299 cell growth in a cell viability assay.

[15] = system: SF-126; type: functional, cell-based, Homo sapiens; settings: Homo sapiens, SF-126;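 also: growth inhibition of human SF126 cells, read out with a cell viability assay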
Description: SANGER: Inhibition of human SF126 cell growth in a cell viability assay.

[16] = system: TE-1; type: functional, cell-based, Homo sapiens; settings: Homo sapiens, TE-1;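 also: growth inhibition of the human TE-1 cell line, read out with a cell viability assay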
Description: SANGER: Inhibition of human TE-1 cell growth in a cell viability assay.

[17] = system: A704; type: functional, cell-based; settings: Homo sapiens;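 also: growth inhibition of human A704 cells, read out with a cell viability assay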
Description: SANGER: Inhibition of human A704 cell growth in a cell viability assay.

[18] = system: LU-139; type: functional, cell-based, Homo sapiens; settings: Homo sapiens, LU-139
Description: SANGER: Inhibition of human LU-139 cell growth in a cell viability assay.

[19] = system: OS-RC-2; type: functional, cell-based, Homo sapiens; settings: Homo sapiens, OS-RC-2;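 also: growth inhibition of human OS-RC-2 cells, measured by a cell viability assay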
Description: SANGER: Inhibition of human OS-RC-2 cell growth in a cell viability assay.

[20] = system: ES7; type: functional, cell-based, Homo sapiens; settings: Homo sapiens, ES7;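 also: growth inhibition of cultured human ES7 cells, read out as cell viability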
Description: SANGER: Inhibition of human ES7 cell growth in a cell viability assay.

[21] = system: NCI-H720; type: functional, cell-based, Homo sapiens; settings: Homo sapiens, NCI-H720;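 also: growth inhibition of human NCI-H720 cells determined by a cell viability assay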
Description: SANGER: Inhibition of human NCI-H720 cell growth in a cell viability assay.

[22] = system: D-263MG; type: functional, cell-based, Homo sapiens; settings: Homo sapiens, D-263MG
Description: SANGER: Inhibition of human D-263MG cell growth in a cell viability assay.

[23] = system: KS-1; type: functional, cell-based; settings: Homo sapiens;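 also: growth inhibition of KS-1 cells, read out with a cell viability assay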
Description: SANGER: Inhibition of human KS-1 cell growth in a cell viability assay.

[24] = system: SK-NEP-1; type: functional, cell-based, Homo sapiens; settings: Homo sapiens, SK-NEP-1;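 also: growth inhibition of human SK-NEP-1 cells, read out by a cell viability assay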
Description: SANGER: Inhibition of human SK-NEP-1 cell growth in a cell viability assay.

[25] = system: IST-MES1; type: functional, cell-based, Homo sapiens; settings: Homo sapiens, IST-MES1;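 also: growth inhibition of IST-MES1 cells, measured with a cell viability assay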
Description: SANGER: Inhibition of human IST-MES1 cell growth in a cell viability assay.

[26] = system: GOTO; type: functional, cell-based, Homo sapiens; settings: Homo sapiens, GOTO;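 also: growth inhibition of GOTO cells, read out by a cell viability assay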
Description: SANGER: Inhibition of human GOTO cell growth in a cell viability assay.

[27] = system: ATN-1; type: functional, cell-based, Homo sapiens; settings: Homo sapiens, ATN-1;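 also: growth inhibition of human ATN-1 cells, read out with a cell viability assay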
Description: SANGER: Inhibition of human ATN-1 cell growth in a cell viability assay.

[28] = system: ES5; type: functional, cell-based, Homo sapiens; settings: Homo sapiens, ES5;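 also: growth inhibition of human ES5 cells, read out by a cell viability assay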
Description: SANGER: Inhibition of human ES5 cell growth in a cell viability assay.

[29] = system: COLO-829; type: functional, cell-based, Homo sapiens; settings: Homo sapiens, COLO-829
Description: SANGER: Inhibition of human COLO-829 cell growth in a cell viability assay.

[30] = system: NCI-H1304; type: functional, cell-based, Homo sapiens; settings: Homo sapiens, NCI-H1304;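 also: growth inhibition of the cancer cell line, measured in a cell viability assay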
Description: SANGER: Inhibition of human NCI-H1304 cell growth in a cell viability assay.

[31] = system: L-428; type: functional, cell-based, Homo sapiens; settings: Homo sapiens, L-428
Description: SANGER: Inhibition of human L-428 cell growth in a cell viability assay.

[32] = system: BB49-HNC; type: functional, cell-based, Homo sapiens; settings: Homo sapiens, BB49-HNC;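 also: cell viability assay read-out, reported as inhibition of BB49-HNC cell growth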
Description: SANGER: Inhibition of human BB49-HNC cell growth in a cell viability assay.

[33] = system: ES6; type: functional, cell-based; settings: Homo sapiens;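 also: growth inhibition of human ES6 cells, read out with a cell viability assay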
Description: SANGER: Inhibition of human ES6 cell growth in a cell viability assay.

[34] = system: NH-12; type: functional, cell-based, Homo sapiens; settings: Homo sapiens, NH-12;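 also: growth inhibition of NH-12 cells, read out with a cell viability assay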
Description: SANGER: Inhibition of human NH-12 cell growth in a cell viability assay.

[35] = system: MV4-11; type: functional, cell-based, Homo sapiens, MV-4-11; settings: Homo sapiens, MV4-11;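 also: cell viability readout measuring growth inhibition of human MV-4-11 cells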
Description: SANGER: Inhibition of human MV-4-11 cell growth in a cell viability assay.

[36] = system: SK-LMS-1; type: functional, cell-based, Homo sapiens; settings: Homo sapiens, SK-LMS-1;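 also: growth inhibition of human SK-LMS-1 cells, read out with a cell viability assay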
Description: SANGER: Inhibition of human SK-LMS-1 cell growth in a cell viability assay.

[37] = system: SK-PN-DW; type: functional, cell-based, Homo sapiens; settings: Homo sapiens, SK-PN-DW;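 also: growth inhibition measured with a viability assay on these cells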
Description: SANGER: Inhibition of human SK-PN-DW cell growth in a cell viability assay.

[38] = system: K562; type: functional, cell-based, Homo sapiens; settings: Homo sapiens, K562
Description: SANGER: Inhibition of human K-562 cell growth in a cell viability assay.

[39] = system: NCI-H1770; type: functional, cell-based, Homo sapiens; settings: Homo sapiens, NCI-H1770;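 also: growth inhibition of NCI-H1770 cells determined with a viability readout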
Description: SANGER: Inhibition of human NCI-H1770 cell growth in a cell viability assay.

[40] = system: Mo; type: functional, cell-based, Homo sapiens; settings: Homo sapiens, Mo
Description: SANGER: Inhibition of human Mo-T cell growth in a cell viability assay.

[41] = system: NB69; type: functional, cell-based, Homo sapiens; settings: Homo sapiens, NB69;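 also: growth inhibition of NB69 cells, determined by a cell viability assay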
Description: SANGER: Inhibition of human NB69 cell growth in a cell viability assay.

[42] = system: NB13; type: functional, cell-based, Homo sapiens; settings: Homo sapiens, NB13;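 also: cell viability readout measuring growth inhibition of human NB13 cells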
Description: SANGER: Inhibition of human NB13 cell growth in a cell viability assay.

[43] = system: L-363; type: functional, cell-based, Homo sapiens; settings: Homo sapiens, L-363
Description: SANGER: Inhibition of human L-363 cell growth in a cell viability assay.

[44] = system: MPP-89; type: functional, cell-based, Homo sapiens; settings: Homo sapiens, MPP-89;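 also: growth inhibition of human MPP-89 cells, read out with a cell viability assay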
Description: SANGER: Inhibition of human MPP-89 cell growth in a cell viability assay.

[45] = system: SK-MEL-2; type: functional, cell-based, Homo sapiens; settings: Homo sapiens, SK-MEL-2;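 also: growth inhibition of human SK-MEL-2 cells measured with a cell viability assay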
Description: SANGER: Inhibition of human SK-MEL-2 cell growth in a cell viability assay.

[46] = system: TE-12; type: functional, cell-based, Homo sapiens; settings: Homo sapiens, TE-12;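 also: growth inhibition of TE-12 cells, read out by a cell viability assay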
Description: SANGER: Inhibition of human TE-12 cell growth in a cell viability assay.

[47] = system: TE-6; type: functional, cell-based, Homo sapiens; settings: Homo sapiens, TE-6;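 also: growth inhibition of TE-6 cells, read out with a cell viability assay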
Description: SANGER: Inhibition of human TE-6 cell growth in a cell viability assay.

[48] = system: NB10; type: functional, cell-based, Homo sapiens; settings: Homo sapiens, NB10;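 also: growth inhibition of NB10 cells, read out by a cell viability assay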
Description: SANGER: Inhibition of human NB10 cell growth in a cell viability assay.

[49] = system: MFM-223; type: functional, cell-based, Homo sapiens; settings: Homo sapiens, MFM-223
Description: SANGER: Inhibition of human MFM-223 cell growth in a cell viability assay.

[50] = system: DU-4475; type: functional, cell-based, Homo sapiens; settings: Homo sapiens, DU-4475
Description: SANGER: Inhibition of human DU-4475 cell growth in a cell viability assay.

For `C/C(=C\c1csc(C)n1)[C@@H]1C[C@@H]2O[C@]2(C)CCC[C@H](C)[C@H](O)[C@@H](C)C(=O)C(C)(C)[C@@H](O)CC(=O)O1` [PATUPILONE], the IC50 [1] was > 32 nM, the IC50 [2] was 2.8 nM and the IC50 [3] was 0.912 nM. The IC50 [4] was 2.72 nM, the IC50 [5] was > 32 nM and the IC50 [6] was 30.8 nM. The IC50 [7] was > 32 nM, the IC50 [8] was 0.982 nM and the IC50 [9] was 1.78 nM. For the same compound, the IC50 [10] was 2.52 nM, the IC50 [11] was 4.14 nM and the IC50 [12] was 2.27 nM. The IC50 [13] was 2.05 nM, the IC50 [14] was 0.88 nM and the IC50 [15] was 3.47 nM. For the same compound, the IC50 [16] was 2.02 nM, the IC50 [17] was 14.6 nM and the IC50 [18] was > 32 nM. The IC50 [19] was 1.21 nM, the IC50 [20] was 5.87 nM and the IC50 [21] was > 32 nM. The IC50 [22] was > 32 nM, the IC50 [23] was 1.76 nM and the IC50 [24] was 10 nM. For the same compound, the IC50 [25] was > 32 nM, the IC50 [26] was > 32 nM and the IC50 [27] was 3.47 nM. The IC50 [28] was > 32 nM, the IC50 [29] was > 32 nM and the IC50 [30] was 17.5 nM. For the same compound, the IC50 [31] was > 32 nM, the IC50 [32] was > 32 nM and the IC50 [33] was 11.2 nM. The IC50 [34] was 0.891 nM, the IC50 [35] was 1.7 nM and the IC50 [36] was 0.646 nM. The IC50 [37] was 1.06 nM, the IC50 [38] was 6.89 nM and the IC50 [39] was 0.907 nM. For the same compound, the IC50 [40] was > 32 nM, the IC50 [41] was 8.07 nM and the IC50 [42] was 0.447 nM. For the same compound, the IC50 [43] was 5.88 nM, the IC50 [44] was 8.29 nM and the IC50 [45] was 7.19 nM. The IC50 [46] was 5.47 nM, the IC50 [47] was 23 nM and the IC50 [48] was 11 nM. The IC50 [49] was > 32 nM and the IC50 [50] was 2.38 nM.

For `Cc1ccc(C(=O)Nc2ccc(CN3CCN(C)CC3)c(C(F)(F)F)c2)cc1C#Cc1cnc2cccnn12` [PONATINIB], the IC50 [1] was > 512 nM, the IC50 [2] was 1.69 nM and the IC50 [3] was > 512 nM. The IC50 [4] was 244 nM, the IC50 [5] was > 512 nM and the IC50 [6] was > 512 nM. For the same compound, the IC50 [7] was > 512 nM, the IC50 [8] was > 512 nM and the IC50 [9] was 189 nM. For the same compound, the IC50 [10] was > 512 nM, the IC50 [11] was > 512 nM and the IC50 [12] was > 512 nM. The IC50 [13] was > 512 nM, the IC50 [14] was > 512 nM and the IC50 [15] was 171 nM. For the same compound, the IC50 [16] was > 512 nM, the IC50 [17] was > 512 nM and the IC50 [18] was > 512 nM. The IC50 [19] was > 512 nM, the IC50 [20] was > 512 nM and the IC50 [21] was > 512 nM. The IC50 [22] was > 512 nM, the IC50 [23] was > 512 nM and the IC50 [24] was > 512 nM. The IC50 [25] was 268 nM, the IC50 [26] was > 512 nM and the IC50 [27] was > 512 nM. The IC50 [28] was > 512 nM, the IC50 [29] was > 512 nM and the IC50 [30] was > 512 nM. The IC50 [31] was > 512 nM, the IC50 [32] was > 512 nM and the IC50 [33] was > 512 nM. For the same compound, the IC50 [34] was > 512 nM, the IC50 [35] was < 2 nM and the IC50 [36] was > 512 nM. The IC50 [37] was > 512 nM, the IC50 [38] was > 512 nM and the IC50 [39] was > 512 nM. The IC50 [40] was > 512 nM, the IC50 [41] was > 512 nM and the IC50 [42] was > 512 nM. For the same compound, the IC50 [43] was > 512 nM, the IC50 [44] was 169 nM and the IC50 [45] was > 512 nM. The IC50 [46] was > 512 nM, the IC50 [47] was > 512 nM and the IC50 [48] was > 512 nM. For the same compound, the IC50 [49] was > 512 nM and the IC50 [50] was 495 nM.
